Measured values: paper PMC5926251 (Japanese Journal of Cancer Research : Gann, 2000)
In brackets after ≈: the same amount, converted by molar mass. Several values for one entry are separate records, joined by “and”; a condition that tells them apart may be missing. Identical values can stand only once. Like-named read-outs stand apart in the source and are kept apart here. Blank lines part the entries; values can stand above or below the compound they belong to.

What was measured:
DNA polymerase β [1] = molecular target: T1, DNA polymerase β (Rattus norvegicus, UniProt P06766); assay: DNA polymerase assay, pol. β; type: biochemical; conditions: for MIC Pol. β: Minimum inhibitory concentration: dose that resulted in inhibition of 80% or more of the activity; for Relative activity: Pol. β, Table III
DNA polymerase α [2] = molecular target: T2, DNA polymerase α (Bos taurus, UniProt A0AAA9TD94); assay: DNA polymerase assay, pol. α; type: biochemical, calf; conditions: for IC50: 50%-inhibitory concentration; for IC50 / MIC Pol. α: Table I; for MIC Pol. α: Minimum inhibitory concentration: dose that resulted in inhibition of 80% or more of the activity; for Relative activity: Pol. α, Table III
T2 sequence (A0AAA9TD94 1-1441): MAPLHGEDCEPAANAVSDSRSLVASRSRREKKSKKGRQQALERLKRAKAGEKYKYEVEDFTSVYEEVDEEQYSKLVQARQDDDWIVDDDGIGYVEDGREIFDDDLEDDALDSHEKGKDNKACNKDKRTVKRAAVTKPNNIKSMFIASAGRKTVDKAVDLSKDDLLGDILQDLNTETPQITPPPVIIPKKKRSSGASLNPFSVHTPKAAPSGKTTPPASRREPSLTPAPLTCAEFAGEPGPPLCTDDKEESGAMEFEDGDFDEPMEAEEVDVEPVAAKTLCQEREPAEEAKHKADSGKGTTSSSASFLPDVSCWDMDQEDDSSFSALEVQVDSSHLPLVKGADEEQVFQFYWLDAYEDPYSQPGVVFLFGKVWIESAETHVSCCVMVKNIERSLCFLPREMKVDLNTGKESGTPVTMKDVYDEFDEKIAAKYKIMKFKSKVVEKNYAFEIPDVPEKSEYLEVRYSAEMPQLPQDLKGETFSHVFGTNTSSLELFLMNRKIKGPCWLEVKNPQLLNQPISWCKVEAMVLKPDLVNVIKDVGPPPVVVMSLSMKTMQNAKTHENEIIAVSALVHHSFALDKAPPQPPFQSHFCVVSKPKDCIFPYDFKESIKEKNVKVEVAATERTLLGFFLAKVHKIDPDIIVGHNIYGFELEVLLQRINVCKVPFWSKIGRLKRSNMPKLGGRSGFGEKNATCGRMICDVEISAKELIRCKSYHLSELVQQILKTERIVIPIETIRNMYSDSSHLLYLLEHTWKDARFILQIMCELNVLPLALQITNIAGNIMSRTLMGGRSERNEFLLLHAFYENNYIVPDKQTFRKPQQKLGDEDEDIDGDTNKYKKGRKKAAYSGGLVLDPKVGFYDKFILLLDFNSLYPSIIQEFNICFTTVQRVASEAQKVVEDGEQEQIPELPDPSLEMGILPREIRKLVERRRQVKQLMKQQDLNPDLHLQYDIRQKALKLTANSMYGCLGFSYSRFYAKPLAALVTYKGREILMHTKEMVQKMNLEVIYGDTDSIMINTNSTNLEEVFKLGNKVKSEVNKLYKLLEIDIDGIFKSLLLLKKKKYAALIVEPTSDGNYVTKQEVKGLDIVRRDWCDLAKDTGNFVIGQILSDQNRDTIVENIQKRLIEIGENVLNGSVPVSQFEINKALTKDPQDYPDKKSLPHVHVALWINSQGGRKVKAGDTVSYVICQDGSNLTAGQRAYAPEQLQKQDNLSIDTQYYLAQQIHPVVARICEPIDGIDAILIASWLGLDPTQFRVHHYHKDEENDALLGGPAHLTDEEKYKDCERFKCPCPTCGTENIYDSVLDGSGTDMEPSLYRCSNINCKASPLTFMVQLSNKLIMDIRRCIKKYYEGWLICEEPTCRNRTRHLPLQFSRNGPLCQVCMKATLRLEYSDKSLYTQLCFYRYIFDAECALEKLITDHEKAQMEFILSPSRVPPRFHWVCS

[3] = molecular target: Bovine pancreas deoxyribonuclease I (Bos taurus, UniProt P00639); assay: Deoxyribonuclease I activity assay; type: biochemical; conditions: 20 µM compound, 0.05 units enzyme; Fig. 3
Sequence of Bovine pancreas deoxyribonuclease I (P00639 23-282): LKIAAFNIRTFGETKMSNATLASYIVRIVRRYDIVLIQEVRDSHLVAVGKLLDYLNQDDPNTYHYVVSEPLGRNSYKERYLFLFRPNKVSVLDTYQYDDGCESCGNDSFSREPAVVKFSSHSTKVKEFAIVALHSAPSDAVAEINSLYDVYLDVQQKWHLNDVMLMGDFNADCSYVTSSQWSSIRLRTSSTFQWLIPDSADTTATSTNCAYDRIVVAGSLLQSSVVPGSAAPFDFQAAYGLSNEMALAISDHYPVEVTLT

T4 polynucleotide kinase = T4 polynucleotide kinase (Enterobacteria phage T4, UniProt P06855); conditions: 20 µM compound, 0.05 units enzyme; Fig. 3
Sequence of T4 polynucleotide kinase (P06855 whole entry): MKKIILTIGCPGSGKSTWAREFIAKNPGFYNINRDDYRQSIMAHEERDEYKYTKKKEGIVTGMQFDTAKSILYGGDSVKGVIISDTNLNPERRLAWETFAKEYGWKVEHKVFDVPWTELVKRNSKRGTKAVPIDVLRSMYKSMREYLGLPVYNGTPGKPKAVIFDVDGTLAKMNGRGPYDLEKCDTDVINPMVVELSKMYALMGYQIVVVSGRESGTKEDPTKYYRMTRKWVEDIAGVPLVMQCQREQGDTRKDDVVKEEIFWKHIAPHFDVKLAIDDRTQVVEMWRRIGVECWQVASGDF

Taq DNA polymerase = Taq DNA polymerase (Thermus aquaticus, UniProt P19821); assay: Taq DNA polymerase activity assay; type: biochemical; conditions: 20 µM compound, 0.05 units enzyme; Fig. 3
Sequence of Taq DNA polymerase (P19821 whole entry): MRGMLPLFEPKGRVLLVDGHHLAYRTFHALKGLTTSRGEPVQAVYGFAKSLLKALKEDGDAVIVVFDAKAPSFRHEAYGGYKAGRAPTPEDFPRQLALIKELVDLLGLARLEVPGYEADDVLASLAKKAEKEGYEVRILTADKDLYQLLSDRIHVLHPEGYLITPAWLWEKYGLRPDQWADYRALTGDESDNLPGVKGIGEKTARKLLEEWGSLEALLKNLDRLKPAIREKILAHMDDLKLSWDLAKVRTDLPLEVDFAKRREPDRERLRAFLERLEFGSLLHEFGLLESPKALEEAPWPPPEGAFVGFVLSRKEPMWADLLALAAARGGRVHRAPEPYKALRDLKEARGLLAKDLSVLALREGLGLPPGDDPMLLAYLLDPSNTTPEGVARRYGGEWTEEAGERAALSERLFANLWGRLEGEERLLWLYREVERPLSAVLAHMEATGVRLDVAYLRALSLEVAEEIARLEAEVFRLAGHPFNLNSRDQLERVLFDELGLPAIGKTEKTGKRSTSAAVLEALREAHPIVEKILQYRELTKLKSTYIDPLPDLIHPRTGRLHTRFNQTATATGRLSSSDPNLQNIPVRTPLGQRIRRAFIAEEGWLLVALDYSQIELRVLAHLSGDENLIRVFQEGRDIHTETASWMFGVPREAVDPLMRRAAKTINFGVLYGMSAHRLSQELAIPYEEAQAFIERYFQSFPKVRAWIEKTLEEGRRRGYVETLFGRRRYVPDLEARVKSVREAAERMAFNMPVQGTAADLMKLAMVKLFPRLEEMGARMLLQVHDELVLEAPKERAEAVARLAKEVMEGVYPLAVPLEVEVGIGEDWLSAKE

DNA polymerase α [4] = molecular target: T2, DNA polymerase α; assay: Kinetic analysis of pol. α inhibition; type: biochemical, calf; conditions: for Inhibitory mode: from Lineweaver Burk plot
E. coli DNA polymerase I = E. coli DNA polymerase I (Escherichia coli, UniProt P00582); assay: E. coli DNA polymerase I activity assay; type: biochemical; conditions: 20 µM compound, 0.05 units enzyme; Fig. 3
Sequence of E. coli DNA polymerase I (P00582 whole entry): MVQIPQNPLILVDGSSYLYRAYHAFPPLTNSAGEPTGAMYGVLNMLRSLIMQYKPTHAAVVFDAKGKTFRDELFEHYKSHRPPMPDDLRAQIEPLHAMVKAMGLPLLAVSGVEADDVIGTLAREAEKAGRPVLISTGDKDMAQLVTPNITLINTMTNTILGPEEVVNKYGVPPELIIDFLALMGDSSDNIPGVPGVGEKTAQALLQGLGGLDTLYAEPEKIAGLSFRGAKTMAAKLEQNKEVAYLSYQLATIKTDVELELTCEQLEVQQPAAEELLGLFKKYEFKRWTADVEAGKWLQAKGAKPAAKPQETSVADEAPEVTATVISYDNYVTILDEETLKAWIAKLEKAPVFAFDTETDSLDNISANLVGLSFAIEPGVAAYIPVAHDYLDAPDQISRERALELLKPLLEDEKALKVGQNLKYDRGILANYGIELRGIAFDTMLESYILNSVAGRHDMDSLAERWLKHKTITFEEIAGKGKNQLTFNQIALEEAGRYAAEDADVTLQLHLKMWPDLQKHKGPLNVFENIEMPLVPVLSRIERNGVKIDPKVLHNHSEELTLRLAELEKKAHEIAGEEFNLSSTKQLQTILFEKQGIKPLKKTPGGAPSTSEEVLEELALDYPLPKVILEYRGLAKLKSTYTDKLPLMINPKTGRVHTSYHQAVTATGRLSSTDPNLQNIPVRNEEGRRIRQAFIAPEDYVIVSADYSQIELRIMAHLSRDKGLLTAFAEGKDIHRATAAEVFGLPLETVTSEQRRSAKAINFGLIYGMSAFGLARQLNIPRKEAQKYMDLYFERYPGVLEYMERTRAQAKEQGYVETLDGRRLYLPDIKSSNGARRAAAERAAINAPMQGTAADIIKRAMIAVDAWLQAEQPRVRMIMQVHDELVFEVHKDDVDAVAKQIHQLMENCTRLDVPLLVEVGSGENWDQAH

[5] = molecular target: HIV-1 reverse transcriptase (Human immunodeficiency virus type 1 group M subtype B, UniProt P03366); assay: HIV-1 reverse transcriptase activity assay; type: biochemical; conditions: 20 µM compound, 0.05 units enzyme; Fig. 3
T7 RNA polymerase = T7 RNA polymerase (Escherichia phage T7, UniProt P00573); conditions: 20 µM compound, 0.05 units enzyme; Fig. 3
Sequence of T7 RNA polymerase (P00573 whole entry): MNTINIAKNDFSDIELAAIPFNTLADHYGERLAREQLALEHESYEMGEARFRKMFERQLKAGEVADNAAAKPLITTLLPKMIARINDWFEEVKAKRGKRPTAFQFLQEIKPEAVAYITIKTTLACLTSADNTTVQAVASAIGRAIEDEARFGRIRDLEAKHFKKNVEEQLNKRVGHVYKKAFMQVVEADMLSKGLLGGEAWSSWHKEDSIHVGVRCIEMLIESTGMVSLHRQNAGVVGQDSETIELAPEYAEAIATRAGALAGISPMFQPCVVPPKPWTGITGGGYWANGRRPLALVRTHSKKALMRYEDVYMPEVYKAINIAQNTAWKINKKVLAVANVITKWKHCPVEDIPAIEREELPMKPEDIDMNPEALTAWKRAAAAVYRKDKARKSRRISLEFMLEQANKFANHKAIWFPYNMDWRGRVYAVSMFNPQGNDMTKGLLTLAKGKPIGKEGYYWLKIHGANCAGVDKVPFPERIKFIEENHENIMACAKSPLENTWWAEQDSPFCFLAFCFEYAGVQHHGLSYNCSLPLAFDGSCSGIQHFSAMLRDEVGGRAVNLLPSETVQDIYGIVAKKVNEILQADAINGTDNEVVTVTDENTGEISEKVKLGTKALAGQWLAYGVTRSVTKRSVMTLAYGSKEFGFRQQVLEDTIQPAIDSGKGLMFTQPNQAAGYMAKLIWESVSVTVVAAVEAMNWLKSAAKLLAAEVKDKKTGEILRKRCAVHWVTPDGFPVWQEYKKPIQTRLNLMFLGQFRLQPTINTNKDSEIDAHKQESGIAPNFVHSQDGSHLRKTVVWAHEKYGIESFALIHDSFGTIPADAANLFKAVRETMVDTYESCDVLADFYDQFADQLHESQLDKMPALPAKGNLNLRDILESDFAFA

DNA polymerase β [6] = molecular target: T1, DNA polymerase β; assay: Kinetic analysis of pol. β inhibition; type: biochemical; conditions: for Inhibitory mode: from Lineweaver Burk plot
T4 DNA polymerase = molecular target: T3, T4 DNA polymerase (Enterobacteria phage T4, UniProt P04415); assay: T4 DNA polymerase activity assay; type: biochemical; conditions: 20 µM compound, 0.05 units enzyme; Fig. 3
T3 sequence (P04415 1-898): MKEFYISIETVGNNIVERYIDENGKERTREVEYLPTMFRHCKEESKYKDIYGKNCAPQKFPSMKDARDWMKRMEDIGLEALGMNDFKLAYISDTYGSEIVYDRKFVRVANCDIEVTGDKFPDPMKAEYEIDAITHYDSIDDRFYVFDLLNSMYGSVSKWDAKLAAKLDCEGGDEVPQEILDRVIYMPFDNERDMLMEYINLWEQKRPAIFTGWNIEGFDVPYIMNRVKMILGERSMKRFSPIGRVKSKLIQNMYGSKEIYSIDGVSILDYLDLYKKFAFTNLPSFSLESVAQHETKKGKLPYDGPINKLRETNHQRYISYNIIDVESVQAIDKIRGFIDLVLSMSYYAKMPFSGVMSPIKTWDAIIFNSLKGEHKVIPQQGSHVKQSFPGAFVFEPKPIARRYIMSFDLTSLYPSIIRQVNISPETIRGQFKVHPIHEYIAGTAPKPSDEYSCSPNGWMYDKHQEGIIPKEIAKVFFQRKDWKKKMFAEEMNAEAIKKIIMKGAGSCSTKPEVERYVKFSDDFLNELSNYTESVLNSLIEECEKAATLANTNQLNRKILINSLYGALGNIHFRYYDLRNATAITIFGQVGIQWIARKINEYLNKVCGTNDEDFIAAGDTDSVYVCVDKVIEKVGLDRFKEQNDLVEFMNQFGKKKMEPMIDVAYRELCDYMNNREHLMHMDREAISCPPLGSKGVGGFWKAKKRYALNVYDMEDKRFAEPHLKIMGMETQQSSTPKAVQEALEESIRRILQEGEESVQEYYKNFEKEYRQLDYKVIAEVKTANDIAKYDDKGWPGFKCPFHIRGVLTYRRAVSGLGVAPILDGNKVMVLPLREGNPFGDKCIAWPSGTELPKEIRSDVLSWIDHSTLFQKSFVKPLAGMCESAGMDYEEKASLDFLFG

calf thymus TdT = calf thymus TdT (Bos taurus, UniProt P06526); assay: TdT activity assay; type: biochemical; conditions: 20 µM compound, 0.05 units enzyme; Fig. 3
Sequence of calf thymus TdT (P06526 whole entry): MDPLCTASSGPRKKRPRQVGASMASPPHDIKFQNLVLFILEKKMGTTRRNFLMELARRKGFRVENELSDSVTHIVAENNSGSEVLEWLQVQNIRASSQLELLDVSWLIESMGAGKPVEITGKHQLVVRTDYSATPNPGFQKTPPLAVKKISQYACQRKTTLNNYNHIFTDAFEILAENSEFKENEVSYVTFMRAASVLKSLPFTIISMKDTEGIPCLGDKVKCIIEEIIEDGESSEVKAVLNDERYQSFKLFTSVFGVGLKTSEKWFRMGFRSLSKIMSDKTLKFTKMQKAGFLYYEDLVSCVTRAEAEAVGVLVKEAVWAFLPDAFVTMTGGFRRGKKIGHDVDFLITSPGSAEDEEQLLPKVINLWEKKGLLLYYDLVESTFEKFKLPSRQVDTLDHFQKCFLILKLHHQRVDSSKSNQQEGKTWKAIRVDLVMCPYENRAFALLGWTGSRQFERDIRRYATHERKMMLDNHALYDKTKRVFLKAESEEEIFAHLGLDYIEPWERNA

[7] = read-out: IC50 Pol. β, 50%-inhibitory concentration, Table I
[8] = nucleotide substrate dTTP, from Dixon plot
[9] = template-primer poly(dA)/oligo(dT)12-18, from Dixon plot
[10] = versus nucleotide substrate dTTP

Structure (SMILES): O=S(=O)(O)C[C@H]1O[C@H](OCC(O)CO)[C@H](O)[C@@H](O)[C@@H]1O (stereo partly shown) [I&II&III + Quinovose + -]
- IC50 (DNA polymerase β [1]; [7]): > 1000 µM
- IC50 (DNA polymerase α [2]; read-out: IC50 Pol. α): > 1000 µM

Structure (SMILES): C[C@H]1OC(OCC(O)CO)[C@H](O)[C@@H](O)[C@@H]1O (stereo partly shown) [II&III - Quinovose + -]
- IC50 (DNA polymerase β [1]; [7]): > 1000 µM
- IC50 (DNA polymerase α [2]; read-out: IC50 Pol. α): > 1000 µM

Structure (SMILES): CCCCCCCCCCCCCCCC(=O)OC[C@@H](O)CO[C@H]1O[C@H](CS(=O)(=O)O)[C@@H](O)[C@H](O)[C@H]1O [C16--SQMG]
- MIC Pol. β (DNA polymerase β [1]; Table I): 43 µM and 46 µM
- IC50 (DNA polymerase β [1]; [7]): 34 µM and 36 µM
- MIC Pol. α (DNA polymerase α [2]): 9.1 µM and 14 µM
- IC50 (DNA polymerase α [2]; read-out: IC50 Pol. α): 4 µM and 5.9 µM

Structure (SMILES): CCCCCCCCCCCCCCCCCC(=O)OC[C@H](CO[C@H]1O[C@H](CS(=O)(=O)O)[C@@H](O)[C@H](O)[C@H]1O)OC(=O)CCCCCCCCCCCCCCCCC [C18--SQDG]
- Effect on deoxyribonuclease I activity [3]: hardly affected
- Effect on T4 polynucleotide kinase activity (T4 polynucleotide kinase): hardly affected
- Effect on Taq DNA polymerase activity (Taq DNA polymerase): hardly affected
- Ki (DNA polymerase α [4]; [8]): 0.6 µM
- Vmax (DNA polymerase α [4]; nucleotide substrate dTTP, sulfolipid conc. 0.2): 170 pmol/h
- Vmax (DNA polymerase α [4]; nucleotide substrate dTTP, sulfolipid conc. 0.4): 100 pmol/h
- Vmax (DNA polymerase α [4]; nucleotide substrate dTTP, sulfolipid conc. 0.6): 56 pmol/h
- Ki (DNA polymerase α [4]; [9]): 0.2 µM
- Vmax (DNA polymerase α [4]; template-primer, sulfolipid conc. 0.2): 100 pmol/h
- Vmax (DNA polymerase α [4]; template-primer, sulfolipid conc. 0.4): 56 pmol/h
- Vmax (DNA polymerase α [4]; template-primer, sulfolipid conc. 0.6): 40 pmol/h
- Inhibitory mode (DNA polymerase α [4]; [10]): Non-competitive
- Inhibitory mode (DNA polymerase α [4]; versus template-primer): Non-competitive
- MIC Pol. β (DNA polymerase β [1]; Table I): 60 µM and 62 µM
- Relative activity (DNA polymerase β [1]; 20 µM compound + 40 µM poly(rC)): 59%
- Relative activity (DNA polymerase β [1]; 20 µM compound + 0.05% NP-40): 101%
- Relative activity (DNA polymerase β [1]; 20 µM compound + 80 g/ml BSA): 63%
- Relative activity (DNA polymerase β [1]; 20 µM compound alone): 65%
- IC50 (DNA polymerase β [1]; [7]): 37 µM and 43 µM
- MIC Pol. α (DNA polymerase α [2]): 1.1 µM and 1.2 µM
- Relative activity (DNA polymerase α [2]; 2 µM compound + 40 µM poly(rC)): 12%
- Relative activity (DNA polymerase α [2]; 2 µM compound + 0.05% NP-40): 15%
- Relative activity (DNA polymerase α [2]; 2 µM compound + 80 g/ml BSA): 16%
- Relative activity (DNA polymerase α [2]; 2 µM compound alone): 10%
- IC50 (DNA polymerase α [2]; read-out: IC50 Pol. α): 0.4 µM
- Effect on E. coli DNA polymerase I activity (E. coli DNA polymerase I): hardly affected
- Effect on HIV-1 reverse transcriptase activity [5]: moderate inhibitory effect
- Effect on T7 RNA polymerase activity (T7 RNA polymerase): hardly affected
- Ki (DNA polymerase β [6]; [8]): 36 µM
- Vmax (DNA polymerase β [6]; nucleotide substrate dTTP, one value printed for all sulfolipid conc.): 38 pmol/h
- Ki (DNA polymerase β [6]; [9]): 5 µM
- Inhibitory mode (DNA polymerase β [6]; [10]): Competitive
- Inhibitory mode (DNA polymerase β [6]; versus template-primer): Competitive
- Effect on T4 DNA polymerase activity (T4 DNA polymerase): hardly affected
- Effect on TdT activity (calf thymus TdT): inhibited

Structure (SMILES): CCCCCCCCCCCCCC(=O)OC[C@H](CO[C@H]1O[C@H](CS(=O)(=O)O)[C@@H](O)[C@H](O)[C@H]1O)OC(=O)CCCCCCCCCCCCC [C14--SQDG]
- MIC Pol. β (DNA polymerase β [1]; Table I): 37 µM and 40 µM
- IC50 (DNA polymerase β [1]; [7]): 23 µM and 20 µM
- MIC Pol. α (DNA polymerase α [2]): 5.3 µM and 5.2 µM
- IC50 (DNA polymerase α [2]; read-out: IC50 Pol. α): 1.8 µM and 1.9 µM

The next lines start with results.

- IC50 (DNA polymerase β [1]): > 1000 µM
Structure (SMILES): C[C@H](O)[C@@H](O)[C@@H](O)[C@H](O)C=O [II - Fucose - -, Fucose]
- IC50 (DNA polymerase α [2]; IC50 Pol. α): > 1000 µM

- IC50 (DNA polymerase β [1]): 130 µM
- MIC Pol. β (DNA polymerase β [1]; Table I): 250 µM (≈ 71.1 µg/mL)
Structure (SMILES): CCCCCCCCCCCCCCCCCC(=O)O [Stearic acid (18:0), Stearic acid, reference compound]
- IC50 (DNA polymerase α [2]; IC50 Pol. α): 12 µM and 8 µM
- MIC Pol. α (DNA polymerase α [2]): 35 µM (≈ 9.96 µg/mL)

- IC50 (DNA polymerase β [1]): 440 µM
- MIC Pol. β (DNA polymerase β [1]; Table I): > 1000 µM
Structure (SMILES): CCCCCCCCCCCCCC(=O)O [Myristic acid (14:0), Myristic acid, reference compound]
- IC50 (DNA polymerase α [2]; IC50 Pol. α): 95 µM
- MIC Pol. α (DNA polymerase α [2]): 180 µM (≈ 41.1 µg/mL)

- IC50 (DNA polymerase β [1]): 290 µM
- MIC Pol. β (DNA polymerase β [1]; Table I): 500 µM (≈ 128 µg/mL)
Structure (SMILES): CCCCCCCCCCCCCCCC(=O)O [Palmitic acid (16:0), Palmitic acid, reference compound]
- IC50 (DNA polymerase α [2]; IC50 Pol. α): 42 µM
- MIC Pol. α (DNA polymerase α [2]): 100 µM (≈ 25.6 µg/mL)
